{"source": "patent US5220002A", "about": "“Deacetylcolchicine derivatives” (Ohgen Research Laboratories, Ltd., priority 1990, dated 1993)", "key": {"[1]": {"test_system": "Adriamycin-resistant mouse leukemic cells P388/ADR", "assay": "In vitro tumor cell proliferation inhibiting test (Adriamycin-resistant mouse leukemic cells P388/ADR)", "type": "cell-based", "conditions": "48 h, 2×10^5, RPMI 1640 with 10% bovine fetal serum, 2 days, read-out: 50% proliferation inhibitory concentration: IC50", "procedure": "2×10^5 Adriamycin-resistant mouse leukemic cells P388/ADR are suspended in a RPMI 1640 culture medium containing 10% of a bovine fetal serum, and cultured for 2 days in the presence of a test compound (the test compound is dissolved in dimethyl sulfoxide such that the concentration becomes 1 mg/ml, and this is diluted with a phosphate buffer solution). An influence on cell proliferation is investigated, and 50% proliferation inhibitory concentration: IC50 value (μg/ml) is determined."}, "[2]": {"test_system": "Sarcoma 180 ascites tumor", "assay": "In vivo test on Sarcoma 180 ascites tumor transplanted mice", "set-up": "species or system mouse (ddY male)", "conditions": "once a day over 7 days; for Average number of survival days (mean ± SD): 6 mice per group; for Cured example: groups of 6 mice", "procedure": "1×10^6 Sarcoma 180 cells are transplanted in an abdominal cavity of each of 6-week old ddY male mice. Over 7 days after the first day of transplantation of tumor cells in groups each consisting of 6 mice, the test compound (which is dissolved in propyplene glycol and diluted with a phosphate buffer solution such that the final concentration of propylene glycol becomes 20% or less) is administered in the abdominal cavity once a day, and an average number of survival days and percent prolongation* are measured. [formula]"}, "[3]": {"test_system": "Sarcoma 180 solid tumor", "assay": "In vivo test on Sarcoma 180 solid tumor transplanted mice", "set-up": "species or system mouse (ddY female)", "conditions": "for Average tumor weight (mean ± SD, g): once a day over 10 days from 6th day, tumor taken out 30 days after transplantation; for Percent inhibition: tumor weight, 30 days after transplantation", "procedure": "2×10^6 Sarcoma 180 cells are transplanted subcutaneously in the back of each of 6-week old ddY female mice. Over 10 days from the 6th day after the tumor transplantation in groups each consisting of 6 mices, the test compound (which is dissolved in propylene glycol and diluted with a phosphate buffer solution such that the final concentration of propylene glycol becomes 20% or less) is continuously administered in the abdominal cavity once a day. Thirty days after the tumor transplantation, the tumor is taken out. Its weight is measured, and an average tumor weight and percent inhibition* are measured. [formula]"}, "[4]": {"assay": "Acute toxicity test", "set-up": "species or system mouse (ddY male)", "conditions": "mouse, in vivo, mortality for 1 week, Litchfield-Wilcoxon method", "procedure": "The test compound is administered to each 5-week old ddY male mouse, and mortality is observed for 1 week. A 50% lethal dose (LD50) is calculated from the number of mice died in each group by a Litchfield-Wilcoxon method. The test compound (compound (a)) is suspended in 10% propylene glycol. Ten dilution gradients are prepared from the maximum concentration 80 mg/kg at a ratio of 1.2, and the test is carried out."}}}
{"molecule": "COc1cc2c(c(OC)c1OC)-c1ccc(OC)c(=O)cc1C(NC(=O)[C@H]1COC(C)(C)O1)CC2", "note": "(stereo partly shown) [Compound 1b, Deacetylcolchicine-glyceric Acid Acetonideamide]", "values": [{"measurement": "IC50", "setting": "[1]", "result": 0.066, "unit": "µg/mL"}, {"measurement": "Percent prolongation", "setting": "[2]; 1.25 mg/kg i.p.", "result": 240, "unit": "%"}, {"measurement": "Average number of survival days (mean ± SD)", "setting": "[2]; 1.25 mg/kg i.p.", "result": "42.5 ± 15.4", "unit": "days"}, {"measurement": "Cured example", "setting": "[2]; 1.25 mg/kg i.p.", "result": 1}, {"measurement": "Percent prolongation", "setting": "[2]; 2.5 mg/kg i.p.", "result": 356, "unit": "%"}, {"measurement": "Average number of survival days (mean ± SD)", "setting": "[2]; 2.5 mg/kg i.p.", "result": "57.0 ± 7.3", "unit": "days"}, {"measurement": "Cured example", "setting": "[2]; 2.5 mg/kg i.p.", "result": 5}, {"measurement": "Percent prolongation", "setting": "[2]; 5 mg/kg i.p.", "result": 356, "unit": "%"}, {"measurement": "Average number of survival days (mean ± SD)", "setting": "[2]; 5 mg/kg i.p.", "result": "57.0 ± 5.3", "unit": "days"}, {"measurement": "Cured example", "setting": "[2]; 5 mg/kg i.p.", "result": 4}]}
{"molecule": "COc1cc2c(c(OC)c1OC)-c1ccc(OC)c(=O)cc1C(NC(=O)[C@H]1O[C@H](OC(C)=O)[C@H](O)[C@@H](O)[C@@H]1OC(C)=O)CC2", "note": "(stereo partly shown) [Compound 4, Deacetylcolchicine-glucuronic acid diacetateamide]", "values": [{"measurement": "IC50", "setting": "[1]", "result": 0.034, "unit": "µg/mL"}]}
{"molecule": "COc1cc2c(c(OC)c1OC)-c1ccc(OC)c(=O)cc1C(NC(=O)[C@@H]1COC(C)(C)O1)CC2", "note": "(stereo partly shown) [Compound 1a, Deacetylcolchicine-glyceric Acid Acetonideamide]", "values": [{"measurement": "Average tumor weight (mean ± SD, g)", "setting": "[3]; 0.625 μg/kg i.p.", "result": "0.71 ± 0.38", "unit": "g"}, {"measurement": "Percent inhibition", "setting": "[3]; 0.625 μg/kg i.p.", "result": 49.6, "unit": "%"}, {"measurement": "Average tumor weight (mean ± SD, g)", "setting": "[3]; 1.25 μg/kg i.p.", "result": "0.88 ± 0.78", "unit": "g"}, {"measurement": "Percent inhibition", "setting": "[3]; 1.25 μg/kg i.p.", "result": 47.6, "unit": "%"}, {"measurement": "Average tumor weight (mean ± SD, g)", "setting": "[3]; 2.5 μg/kg i.p.", "result": "0.63 ± 0.51", "unit": "g"}, {"measurement": "Percent inhibition", "setting": "[3]; 2.5 μg/kg i.p.", "result": 55.3, "unit": "%"}, {"measurement": "Average tumor weight (mean ± SD, g)", "setting": "[3]; 5.0 μg/kg i.p.", "result": "0.60 ± 0.52", "unit": "g"}, {"measurement": "Percent inhibition", "setting": "[3]; 5.0 μg/kg i.p.", "result": 57.4, "unit": "%"}, {"measurement": "IC50", "setting": "[1]", "result": 0.036, "unit": "µg/mL"}, {"measurement": "Percent prolongation", "setting": "[2]; 0.31 mg/kg i.p.", "result": 188, "unit": "%"}, {"measurement": "Average number of survival days (mean ± SD)", "setting": "[2]; 0.31 mg/kg i.p.", "result": "36.0 ± 8.0", "unit": "days"}, {"measurement": "Percent prolongation", "setting": "[2]; 0.63 mg/kg i.p.", "result": 281, "unit": "%"}, {"measurement": "Average number of survival days (mean ± SD)", "setting": "[2]; 0.63 mg/kg i.p.", "result": "47.7 ± 11.1", "unit": "days"}, {"measurement": "Cured example", "setting": "[2]; 0.63 mg/kg i.p.", "result": 1}, {"measurement": "Percent prolongation", "setting": "[2]; 1.25 mg/kg i.p.", "result": 277, "unit": "%"}, {"measurement": "Average number of survival days (mean ± SD)", "setting": "[2]; 1.25 mg/kg i.p.", "result": "47.2 ± 11.5", "unit": "days"}, {"measurement": "Cured example", "setting": "[2]; 1.25 mg/kg i.p.", "result": 2}, {"measurement": "Percent prolongation", "setting": "[2]; 2.5 mg/kg i.p.", "result": 333, "unit": "%"}, {"measurement": "Average number of survival days (mean ± SD)", "setting": "[2]; 2.5 mg/kg i.p.", "result": "54.2 ± 11.6", "unit": "days"}, {"measurement": "Cured example", "setting": "[2]; 2.5 mg/kg i.p.", "result": 4}, {"measurement": "LD50 at 168 h", "setting": "[4]; ip, intraperitoneal", "result": 42, "unit": "mg/kg"}, {"measurement": "LD50 at 168 h", "setting": "[4]; intravenous", "result": 38, "unit": "mg/kg"}]}
{"molecule": "COc1cc2c(c(OC)c1OC)-c1ccc(OC)c(=O)cc1C(NC(=O)[C@H]1O[C@H](O)[C@H](O)[C@@H](O)[C@@H]1O)CC2", "note": "(stereo partly shown) [Compound 5, N-(5,6,7,9-tetrahydro-1,2,3,10-tetramethoxy-9-oxobenzo[a]heptalen-7-yl)glucuroneamide]", "values": [{"measurement": "IC50", "setting": "[1]", "result": 0.037, "unit": "µg/mL"}]}
